This note sets out measurements from ChEMBL document CHEMBL1128876, “Nitrogen transfer in E. coli glucosamine-6P synthase. Investigations using substrate and bisubstrate analogs” (Bioorg Med Chem Lett, 1995).

Broadly, the Ki is the equilibrium dissociation constant of an inhibitor or competing ligand from its target.

Experiment [1] can be described thus: Tested for inhibition of glucosamine-6P synthase. More on the design: species or system Escherichia coli.
Experiment [2] in a line: Tested for inhibition of fructose-6P synthase.

Structures are written as SMILES.

With `NC(=O)/C=C/C(=O)NCC(N)C(=O)O` (centres undefined), in experiment [1], the Ki was found to be 0.15 µM.

`NC(CC1CCC(=O)C2OC12)C(=O)O` (centres undefined) had a Ki in experiment [1] of 0.22 µM. This Ki and that of the compound before are within 1.5-fold of each other.

With `NC(CO)C(O)C(O)C(O)COP(=O)(O)O` (centres undefined), in experiment [2], the affinity corresponds to a Ki of 25 µM.

In experiment [1], `O=C(O)C1CCC=N1` (racemic) gave a Ki of 23 µM. That is a double-digit micromolar value.
